1 compound from paper PMC5218480 (PLoS ONE, 2017) can be followed below.

In the assay the test system is MV-4-11 cells. Description: Gene expression microarray analysis (Affymetrix PrimeView) and GSEA. The following applies: MV-4-11 cells, 48 hours. Details: RFU PODN (11730768_x_at) / Fold change /veh PODN (11730768_x_at) / RFU LINC00158 (11744669_a_at) / Fold change /veh LINC00158 (11744669_a_at) / RFU DUSP10 (11751237_a_at) / Fold change /veh DUSP10 (11751237_a_at) / RFU ID3 (11757404_x_at) / Fold change /veh ID3 (11757404_x_at) / RFU PLEKHG5 (11737974_s_at) / Fold change /veh PLEKHG5 (11737974_s_at) / RFU LRRC4B (11730491_at) / Fold change /veh LRRC4B (11730491_at) / RFU GIMAP4 (11747438_a_at) / Fold change /veh GIMAP4 (11747438_a_at) / RFU KRT8 (11758183_x_at) / Fold change /veh KRT8 (11758183_x_at) / RFU CNN1 (11734310_a_at) / Fold change /veh CNN1 (11734310_a_at) / RFU VPS37D (11726825_at) / Fold change /veh VPS37D (11726825_at) / RFU C10orf10 (11716522_x_at) / Fold change /veh C10orf10 (11716522_x_at) / RFU KIR2DL2 /// KIR2DL4 /// KIR2DL5A /// KIR2DL5B /// KIR2DS1 /// KIR2DS2 /// KIR2DS3 /// KIR2DS4 /// KIR3DL3 /// KIR3DL3 /// KIR3DS1 (11738374_at) / Fold change /veh KIR2DL2 /// KIR2DL4 /// KIR2DL5A /// KIR2DL5B /// KIR2DS1 /// KIR2DS2 /// KIR2DS3 /// KIR2DS4 /// KIR3DL3 /// KIR3DL3 /// KIR3DS1 (11738374_at) / RFU C1QL1 (11718748_at) / Fold change /veh C1QL1 (11718748_at) / RFU TMPRSS4 (11747572_a_at) / Fold change /veh TMPRSS4 (11747572_a_at) / RFU HAMP (11756126_x_at) / Fold change /veh HAMP (11756126_x_at) / RFU RNFT2 (11725882_a_at) / Fold change /veh RNFT2 (11725882_a_at) / RFU NR4A2 (11747474_a_at) / Fold change /veh NR4A2 (11747474_a_at) / RFU ABCC12 (11746883_a_at) / Fold change /veh ABCC12 (11746883_a_at) / RFU TMEM136 (11760407_x_at) / Fold change /veh TMEM136 (11760407_x_at) / RFU CLDN22 /// WWC2 (11732394_at) / Fold change /veh CLDN22 /// WWC2 (11732394_at) / RFU HLA-DPB1 (11760878_x_at) / Fold change /veh HLA-DPB1 (11760878_x_at) / RFU SPINT1 (11716480_a_at) / Fold change /veh SPINT1 (11716480_a_at) / RFU GAP43 (11754022_s_at) / Fold change /veh GAP43 (11754022_s_at) / RFU A4GNT (11735810_at) / Fold change /veh A4GNT (11735810_at) / RFU PRB3 (11715151_x_at) / Fold change /veh PRB3 (11715151_x_at) / RFU TUBB4B (11761932_at) / Fold change /veh TUBB4B (11761932_at) / RFU CAPN14 (11732068_a_at) / Fold change /veh CAPN14 (11732068_a_at) / RFU TMCC2 (11721928_a_at) / Fold change /veh TMCC2 (11721928_a_at) / RFU IRGQ (11745062_a_at) / Fold change /veh IRGQ (11745062_a_at) / RFU FAM174B (11720279_a_at) / Fold change /veh FAM174B (11720279_a_at) / RFU TMPRSS4 (11748680_a_at) / Fold change /veh TMPRSS4 (11748680_a_at) / RFU FAM212B (11763350_a_at) / Fold change /veh FAM212B (11763350_a_at) / RFU PLEKHG5 (11743358_a_at) / Fold change /veh PLEKHG5 (11743358_a_at) / RFU ZSCAN30 (11745921_a_at) / Fold change /veh ZSCAN30 (11745921_a_at) / RFU CMKLR1 (11741424_a_at) / Fold change /veh CMKLR1 (11741424_a_at) / RFU LOC101060620 /// MAPK8IP1 (11723275_at) / Fold change /veh LOC101060620 /// MAPK8IP1 (11723275_at) / RFU SPTSSB (11747773_x_at) / Fold change /veh SPTSSB (11747773_x_at) / RFU PRSS12 (11739890_at) / Fold change /veh PRSS12 (11739890_at) / RFU BIN1 (11741810_x_at) / Fold change /veh BIN1 (11741810_x_at) / RFU WNT11 (11732464_a_at) / Fold change /veh WNT11 (11732464_a_at) / RFU C10orf10 (11716521_a_at) / Fold change /veh C10orf10 (11716521_a_at) / RFU C5orf56 (11738089_at) / Fold change /veh C5orf56 (11738089_at) / RFU CYB561 (11721691_x_at) / Fold change /veh CYB561 (11721691_x_at) / RFU ANKRD19P (11752326_a_at) / Fold change /veh ANKRD19P (11752326_a_at) / RFU OR2T12 /// OR2T33 /// OR2T8 (11738714_s_at) / Fold change /veh OR2T12 /// OR2T33 /// OR2T8 (11738714_s_at) / RFU VCAN (11748164_a_at) / Fold change /veh VCAN (11748164_a_at) / RFU JSRP1 (11732532_at) / Fold change /veh JSRP1 (11732532_at) / RFU KRTAP10-11 (11738290_x_at) / Fold change /veh KRTAP10-11 (11738290_x_at) / RFU MYO3A (11730013_a_at) / Fold change /veh MYO3A (11730013_a_at) / RFU EBF3 (11725865_a_at) / Fold change /veh EBF3 (11725865_a_at) / RFU CAMK2N1 (11719241_x_at) / Fold change /veh CAMK2N1 (11719241_x_at) / RFU C5orf56 (11738088_a_at) / Fold change /veh C5orf56 (11738088_a_at) / RFU OLFML3 (11715873_a_at) / Fold change /veh OLFML3 (11715873_a_at) / RFU LOC100653217 /// NTM (11731650_a_at) / Fold change /veh LOC100653217 /// NTM (11731650_a_at) / RFU MAPK11 (11762145_a_at) / Fold change /veh MAPK11 (11762145_a_at) / RFU FIZ1 (11724087_x_at) / Fold change /veh FIZ1 (11724087_x_at) / RFU OASL (11726364_x_at) / Fold change /veh OASL (11726364_x_at) / RFU SOX15 (11748057_x_at) / Fold change /veh SOX15 (11748057_x_at) / RFU CD79A (11719716_a_at) / Fold change /veh CD79A (11719716_a_at) / RFU HIST1H1D (11736915_at) / Fold change /veh HIST1H1D (11736915_at) / RFU CASKIN2 (11723855_a_at) / Fold change /veh CASKIN2 (11723855_a_at) / RFU LOC730098 (11760151_x_at) / Fold change /veh LOC730098 (11760151_x_at) / RFU OR4N2 (11742367_at) / Fold change /veh OR4N2 (11742367_at) / RFU PRRT2 (11749266_a_at) / Fold change /veh PRRT2 (11749266_a_at) / RFU SNX32 (11753110_a_at) / Fold change /veh SNX32 (11753110_a_at) / RFU CDHR5 (11726645_a_at) / Fold change /veh CDHR5 (11726645_a_at) / RFU RCAN1 (11760418_a_at) / Fold change /veh RCAN1 (11760418_a_at) / RFU FAM167A (11723789_a_at) / Fold change /veh FAM167A (11723789_a_at) / RFU FAM26E (11764081_at) / Fold change /veh FAM26E (11764081_at) / RFU ISYNA1 (11749810_s_at) / Fold change /veh ISYNA1 (11749810_s_at) / RFU ACY1 (11761880_at) / Fold change /veh ACY1 (11761880_at) / RFU 11764098_at / Fold change /veh 11764098_at / RFU SAMD14 (11745864_x_at) / Fold change /veh SAMD14 (11745864_x_at) / RFU NPB (11741838_a_at) / Fold change /veh NPB (11741838_a_at) / RFU TMPRSS6 (11731388_a_at) / Fold change /veh TMPRSS6 (11731388_a_at) / RFU KRTAP10-2 (11738614_at) / Fold change /veh KRTAP10-2 (11738614_at) / RFU ARHGAP8 /// PRR5-ARHGAP8 (11727945_x_at) / Fold change /veh ARHGAP8 /// PRR5-ARHGAP8 (11727945_x_at) / RFU KRTAP5-7 /// NADSYN1 (11734609_at) / Fold change /veh KRTAP5-7 /// NADSYN1 (11734609_at) / RFU RASL12 (11751679_a_at) / Fold change /veh RASL12 (11751679_a_at) / RFU CDKN2B (11736163_a_at) / Fold change /veh CDKN2B (11736163_a_at) / RFU PRF1 (11729649_at) / Fold change /veh PRF1 (11729649_at) / RFU, ZNF638 /// ZNF638-IT1 / Fold change vs veh, ZNF638 /// ZNF638-IT1 / RFU, PANK3 / Fold change vs veh, PANK3 / RFU, SH3YL1 / Fold change vs veh, SH3YL1 / RFU, ZEB2 / Fold change vs veh, ZEB2 / RFU, NRIP1 / Fold change vs veh, NRIP1 / RFU, PTTG1IP / Fold change vs veh, PTTG1IP / RFU, CAPN2 / Fold change vs veh, CAPN2 / RFU, MED14 / Fold change vs veh, MED14 / RFU, SNORA58 / Fold change vs veh, SNORA58 / RFU, C1orf63 / Fold change vs veh, C1orf63 / RFU, LRRFIP1 / Fold change vs veh, LRRFIP1 / RFU, NDUFAF7 / Fold change vs veh, NDUFAF7 / RFU, SLC12A2 / Fold change vs veh, SLC12A2 / RFU, IBTK / Fold change vs veh, IBTK / RFU, ESF1 / Fold change vs veh, ESF1 / Fold change vs veh, TMEM50B / RFU, TAOK1 / Fold change vs veh, TAOK1 / RFU, ACBD3 / Fold change vs veh, ACBD3 / RFU, TMA16 / Fold change vs veh, TMA16 / RFU, RWDD3 / Fold change vs veh, RWDD3 / RFU, BCAT1 / Fold change vs veh, BCAT1 / RFU, EDEM3 / Fold change vs veh, EDEM3 / RFU, TMEM33 / Fold change vs veh, TMEM33 / RFU, WDR75 / Fold change vs veh, WDR75 / RFU, AHCTF1 / Fold change vs veh, AHCTF1 / RFU, TFRC / Fold change vs veh, TFRC / RFU, ZDHHC17 / Fold change vs veh, ZDHHC17 / RFU, NOM1 / Fold change vs veh, NOM1 / RFU, ARL8B / Fold change vs veh, ARL8B / RFU, ZBTB11 / Fold change vs veh, ZBTB11 / RFU, TAMM41 / Fold change vs veh, TAMM41 / RFU, KIAA1704 /// LOC100996395 / Fold change vs veh, KIAA1704 /// LOC100996395 / RFU, ING1 / Fold change vs veh, ING1 / RFU, TRMT61B / Fold change vs veh, TRMT61B / RFU, FUBP3 / Fold change vs veh, FUBP3 / RFU, TP53 / Fold change vs veh, TP53 / RFU, TNKS2 / Fold change vs veh, TNKS2 / RFU, ZFP14 / Fold change vs veh, ZFP14 / RFU, ACTR2 / Fold change vs veh, ACTR2 / RFU, PPP3R1 / Fold change vs veh, PPP3R1 / RFU, PIK3R1 / Fold change vs veh, PIK3R1 / RFU, HNRNPA1 / Fold change vs veh, HNRNPA1 / RFU, RNF170 / Fold change vs veh, RNF170 / RFU, ZNF28 / Fold change vs veh, ZNF28 / RFU, RNGTT / Fold change vs veh, RNGTT / RFU, OGT / Fold change vs veh, OGT / RFU, BRD1 / Fold change vs veh, BRD1 / RFU, MARS / Fold change vs veh, MARS / RFU, ZNF655 / Fold change vs veh, ZNF655 / RFU, FAHD1 / Fold change vs veh, FAHD1 / RFU, BDP1 / Fold change vs veh, BDP1 / RFU, LRRCC1 / Fold change vs veh, LRRCC1 / RFU, ARID1A / Fold change vs veh, ARID1A / RFU, ZNF146 / Fold change vs veh, ZNF146 / RFU, ZNF330 / Fold change vs veh, ZNF330 / RFU, GPN3 / Fold change vs veh, GPN3 / RFU, C9orf123 / Fold change vs veh, C9orf123 / RFU, N4BP2L2 / Fold change vs veh, N4BP2L2 / RFU, ARFIP1 / Fold change vs veh, ARFIP1 / RFU, FAM179B / Fold change vs veh, FAM179B / RFU, BCL10 / Fold change vs veh, BCL10 / RFU, UHRF1BP1L / Fold change vs veh, UHRF1BP1L / RFU, BET1 / Fold change vs veh, BET1 / RFU, CNOT2 / Fold change vs veh, CNOT2 / RFU, ZNF268 / Fold change vs veh, ZNF268 / Fold change vs veh, ZNF507 / RFU, DGCR2 / Fold change vs veh, DGCR2 / RFU, WDSUB1 / Fold change vs veh, WDSUB1 / Fold change vs veh, HSP90B1 /// MIR3652 / RFU, ADSS / Fold change vs veh, ADSS / RFU, GK / Fold change vs veh, GK / RFU, ZNF148 / Fold change vs veh, ZNF148 / RFU, TAF9 / Fold change vs veh, TAF9 / RFU, SLC1A5 / Fold change vs veh, SLC1A5 / RFU, SLMO2 / Fold change vs veh, SLMO2 / RFU, ABCC4 / Fold change vs veh, ABCC4 / RFU, LOC101060439 /// RAP1B / Fold change vs veh, LOC101060439 /// RAP1B / RFU, RFX7 / Fold change vs veh, RFX7 / RFU, GTPBP10 / Fold change vs veh, GTPBP10 / RFU, CNEP1R1 / Fold change vs veh, CNEP1R1 / RFU, BIVM-ERCC5 /// ERCC5 / Fold change vs veh, BIVM-ERCC5 /// ERCC5 / RFU, ILF3 / Fold change vs veh, ILF3 / RFU 11762660_at / Fold change /veh 11762660_at / RFU VCAN (11757783_s_at) / Fold change /veh VCAN (11757783_s_at) / RFU DDX43 (11728927_at) / Fold change /veh DDX43 (11728927_at) / RFU KRT8 (11758188_x_at) / Fold change /veh KRT8 (11758188_x_at) / RFU NKD1 (11759106_at) / Fold change /veh NKD1 (11759106_at) / RFU SRD5A1 (11742802_a_at) / Fold change /veh SRD5A1 (11742802_a_at) / RFU TPSAB1 /// TPSB2 (11721975_s_at) / Fold change /veh TPSAB1 /// TPSB2 (11721975_s_at) / RFU GSTM3 (11746129_a_at) / Fold change /veh GSTM3 (11746129_a_at) / RFU IL23R (11737362_x_at) / Fold change /veh IL23R (11737362_x_at) / RFU TMEM51 (11727254_a_at) / Fold change /veh TMEM51 (11727254_a_at) / RFU PIWIL2 (11732686_x_at) / Fold change /veh PIWIL2 (11732686_x_at) / RFU ORM1 (11744905_x_at) / Fold change /veh ORM1 (11744905_x_at) / RFU CCDC152 (11743942_at) / Fold change /veh CCDC152 (11743942_at) / RFU ECM1 (11717891_a_at) / Fold change /veh ECM1 (11717891_a_at) / RFU IL23R (11748794_a_at) / Fold change /veh IL23R (11748794_a_at) / RFU TNFAIP8L3 (11732012_x_at) / Fold change /veh TNFAIP8L3 (11732012_x_at) / RFU MBOAT4 (11741988_at) / Fold change /veh MBOAT4 (11741988_at) / RFU 11764193_at / Fold change /veh 11764193_at / RFU TMEM53 (11763286_at) / Fold change /veh TMEM53 (11763286_at) / RFU MAGEB2 (11727129_at) / Fold change /veh MAGEB2 (11727129_at) / RFU TMEM200A (11744735_a_at) / Fold change /veh TMEM200A (11744735_a_at) / RFU CCDC152 (11751479_a_at) / Fold change /veh CCDC152 (11751479_a_at) / RFU FAM211A (11726209_a_at) / Fold change /veh FAM211A (11726209_a_at) / RFU RGS16 (11746705_a_at) / Fold change /veh RGS16 (11746705_a_at) / RFU VCAN (11755009_s_at) / Fold change /veh VCAN (11755009_s_at) / RFU RHOB (11743442_s_at) / Fold change /veh RHOB (11743442_s_at) / RFU RGS16 (11720943_a_at) / Fold change /veh RGS16 (11720943_a_at) / RFU RGS16 (11720944_at) / Fold change /veh RGS16 (11720944_at) / RFU, VPS4B / Fold change vs veh, VPS4B / RFU, CREB1 / Fold change vs veh, CREB1 / RFU, DNAJC13 / Fold change vs veh, DNAJC13 / RFU, GNAQ / Fold change vs veh, GNAQ / RFU, CDK5R1 / Fold change vs veh, CDK5R1 / RFU, ZRANB3 / Fold change vs veh, ZRANB3 / RFU, CUL4A / Fold change vs veh, CUL4A / RFU, CCNY / Fold change vs veh, CCNY / RFU, UFL1 / Fold change vs veh, UFL1 / RFU, COG3 / Fold change vs veh, COG3 / RFU, DIAPH2 / Fold change vs veh, DIAPH2 / RFU, SKA2 / Fold change vs veh, SKA2 / RFU, AFF3 / Fold change vs veh, AFF3 / RFU, LMF1 / Fold change vs veh, LMF1 / RFU, IPO11 / Fold change vs veh, IPO11 / RFU, DFFB / Fold change vs veh, DFFB / RFU, FOXP1 / Fold change vs veh, FOXP1 / RFU, CARD8 / Fold change vs veh, CARD8 / RFU, STRN3 / Fold change vs veh, STRN3 / RFU, ADK / Fold change vs veh, ADK / RFU, RASSF2 / Fold change vs veh, RASSF2 / RFU, WIPF1 / Fold change vs veh, WIPF1 / RFU, LARP1B / Fold change vs veh, LARP1B / RFU, RASA1 / Fold change vs veh, RASA1 / RFU, RB1 / Fold change vs veh, RB1 / RFU, PPFIA1 / Fold change vs veh, PPFIA1 / RFU, MAT2A / Fold change vs veh, MAT2A / RFU, CCT5 / Fold change vs veh, CCT5 / RFU, WDR92 / Fold change vs veh, WDR92 / RFU, CUX1 / Fold change vs veh, CUX1 / RFU, TTC7A / Fold change vs veh, TTC7A / RFU, TMEM135 / Fold change vs veh, TMEM135 / RFU, DEPTOR / Fold change vs veh, DEPTOR / RFU, CPM / Fold change vs veh, CPM / RFU, DNAJB6 / Fold change vs veh, DNAJB6 / RFU, CACNA2D3 / Fold change vs veh, CACNA2D3 / RFU, DTX4 / Fold change vs veh, DTX4 / RFU, TFCP2 / Fold change vs veh, TFCP2 / RFU, GMCL1 /// GMCL1P1 / Fold change vs veh, GMCL1 /// GMCL1P1 / RFU, AEBP2 / Fold change vs veh, AEBP2 / RFU, SNHG1 /// SNORD22 /// SNORD25 /// SNORD26 /// SNORD27 /// SNORD28 /// SNORD29 /// SNORD31 / Fold change vs veh, SNHG1 /// SNORD22 /// SNORD25 /// SNORD26 /// SNORD27 /// SNORD28 /// SNORD29 /// SNORD31 / Fold change (Aza/veh), C12orf56 (ProbeSet 11735607_a_at) / Fold change (ACY-1035/veh), C12orf56 (ProbeSet 11735607_a_at) / Fold change (Aza/veh), FGFR1OP (ProbeSet 11751329_s_at) / Fold change (ACY-1035/veh), FGFR1OP (ProbeSet 11751329_s_at) / Fold change (Aza/veh), VPS36 (ProbeSet 11739960_a_at) / Fold change (ACY-1035/veh), VPS36 (ProbeSet 11739960_a_at) / RFU SYPL1 (11715823_x_at) / Fold change /veh SYPL1 (11715823_x_at) / RFU IGFBP7 (11715501_s_at) / Fold change /veh IGFBP7 (11715501_s_at) / RFU REEP3 (11722064_at) / Fold change /veh REEP3 (11722064_at) / RFU IGLL1 (11728026_x_at) / Fold change /veh IGLL1 (11728026_x_at): dose or concentration left out as unconfirmed. It counts as cell-based, human.

`Nc1ncn([C@@H]2O[C@H](CO)[C@@H](O)[C@H]2O)c(=O)n1` [azacitidine]: the “Fold change /veh SAMD14 (11745864_x_at)” value was 0.91.
